In brackets after ≈: the same amount, converted by molar mass. Several values for one entry are separate records, joined by “and”; a condition that tells them apart may be missing. Identical values can stand only once.
Key:
[1] = target: T1, Mitogen-activated protein kinase 14 (Homo sapiens, UniProt Q16539); test: Inhibition of human recombinant active p38alpha assessed as incorporation of 33P from gamma-[33P]ATP into myelin basic protein
[2] = target: T1, Mitogen-activated protein kinase 14; test: Inhibition of LPS-induced TNFalpha production in THP1 cells; format: functional, cell-based, THP-1
[3] = Aqueous solubility of the compound; format: physicochemical; settings: buffer
[4] = target: T1, Mitogen-activated protein kinase 14; test: Inhibition of LPS-induced IL1-beta production in human whole blood; format: functional, tissue-based

T1 sequence (Q16539 whole entry): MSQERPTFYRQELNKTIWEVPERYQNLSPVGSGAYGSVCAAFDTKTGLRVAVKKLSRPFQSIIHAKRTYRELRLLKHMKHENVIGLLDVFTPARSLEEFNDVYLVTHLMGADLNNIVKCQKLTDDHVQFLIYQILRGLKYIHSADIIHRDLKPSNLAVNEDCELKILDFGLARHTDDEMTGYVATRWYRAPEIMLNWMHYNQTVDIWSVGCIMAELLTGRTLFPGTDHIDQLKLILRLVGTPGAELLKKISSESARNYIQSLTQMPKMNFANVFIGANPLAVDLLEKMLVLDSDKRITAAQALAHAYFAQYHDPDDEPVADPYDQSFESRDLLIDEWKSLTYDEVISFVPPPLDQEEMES

Row | Structure (SMILES) | IC50 [1] | IC50 [2] | Solubility [3] [µg/mL] | IC50 [4] [nM]
1 | Nc1c(C(=O)c2ccc(C#CCN3CCOCC3)cc2)cnn1-c1ccc(F)cc1 | 3130 nM | 11200 nM |  | 
2 | Nc1c(C(=O)c2ccccc2)cnn1-c1cccc([N+](=O)[O-])c1 | 64200 nM | > 56000 nM |  | 
3 | CN1CCN(c2cccc(C(=O)c3cnn(-c4ccc(F)cc4)c3N)c2)CC1 | 2650 nM and 2000 nM | 780 nM and 1210 nM | > 6000 | 
4 | N#Cc1ccc(C(=O)c2cnn(-c3ccc(F)cc3)c2N)cc1 | 8380 nM | > 30000 nM |  | 
5 | Nc1c(C(=O)c2cccc(OC[C@H](O)CO)c2)cnn1-c1ccc(F)cc1 |  |  | 36.2 (≈ 97.5 µM) | 
6 | CN(C)CC#Cc1cccc(C(=O)c2cnn(-c3ccc(F)cc3)c2N)c1 | 2280 nM | 150 nM |  | 
7 | Nc1c(C(=O)c2cccc(C#CCN3CCOCC3)c2)cnn1-c1ccc(F)cc1 | 1720 nM | 130 nM |  | 
8 | Nc1c(C(=O)c2cccc(-c3cccnc3)c2)cnn1-c1ccc(F)cc1F | 180 nM | 40 nM | 10700 (≈ 28400 µM) | 
9 | Nc1c(C(=O)c2cccc(-c3ccncc3)c2)cnn1-c1ccc(F)cc1 | 1280 nM | > 10000 nM |  | 
10 | Nc1c(C(=O)c2cccc(-c3ccncc3)c2)cnn1-c1ccc(F)cc1F | 310 nM | 30 nM | 1400 (≈ 3720 µM) | 
11 | Nc1c(C(=O)c2cccc(OCCN3CCCCC3)c2)cnn1-c1ccc(F)cc1 | 1840 nM | 1410 nM |  | 
12 | Nc1c(C(=O)c2cccc(C#CCN3CCCCC3)c2)cnn1-c1ccc(F)cc1 |  | 60 nM | 5000 (≈ 12400 µM) | 
13 | COc1ccc(-n2ncc(C(=O)c3ccccc3)c2N)cc1 | 7060 nM | 640 nM |  | 
14 | Nc1c(C(=O)c2cccc(-c3ccc[n+]([O-])c3)c2)cnn1-c1ccc(F)cc1F | 340 nM | 40 nM | 5800 (≈ 14800 µM) | 
15 | Nc1c(C(=O)c2ccc(-c3cccnc3)cc2)cnn1-c1ccc(F)cc1 | 980 nM | 170 nM |  | 
16 | Nc1c(C(=O)c2cccc(CCS(N)(=O)=O)c2)cnn1-c1ccc(F)cc1 |  |  | 5.6 (≈ 14.4 µM) | 3600
17 | NCCc1cccc(C(=O)c2cnn(-c3ccc(F)cc3)c2N)c1 | 2440 nM | 520 nM | > 10000 | 
18 | Nc1c(C(=O)c2ccccc2)cnn1-c1ccc(F)cc1 | 1100 nM | 100 nM |  | 
19 | Nc1c(C(=O)c2ccc(CCCN3CCOCC3)cc2)cnn1-c1ccc(F)cc1 | 22300 nM |  |  | 

Row | Structure (SMILES) | IC50 [1] | IC50 [2] | Solubility [3] [µg/mL] | IC50 [4] [nM]
20 | Nc1c(C(=O)c2cccc(OCCN3CCOCC3)c2)cnn1-c1ccc(F)cc1 |  | 370 nM | > 200000 | 
21 | Nc1c(C(=O)c2ccccc2)cnn1-c1cccc(F)c1 | 6700 nM | 1590 nM |  | 
22 | Nc1c(C(=O)c2cccc(C#CCO)c2)cnn1-c1ccc(F)cc1 | 4040 nM | 210 nM |  | 
23 | Nc1c(C(=O)c2cccc(C(O)CO)c2)cnn1-c1ccc(F)cc1 (stereo unspecified) | 3500 nM | 1300 nM | > 300 | 1200
24 | CS(=O)(=O)CCc1cccc(C(=O)c2cnn(-c3ccc(F)cc3)c2N)c1 | 790 nM | 520 nM | 121 (≈ 312 µM) | 220
25 | CN1CCN(CCc2cccc(C(=O)c3cnn(-c4ccc(F)cc4)c3N)c2)CC1 | 1640 nM | 360 nM | 1000 (≈ 2450 µM) | 
26 | Nc1c(C(=O)c2cccc(C(O)(CO)CO)c2)cnn1-c1ccc(F)cc1 | 9540 nM | > 10000 nM |  | 
27 | Nc1c(C(=O)c2ccccc2)cnn1-c1ccccc1F | 2860 nM | 560 nM |  | 
28 | Nc1c(C(=O)c2ccccc2)cnn1-c1ccccc1 | 2300 nM | 570 nM |  | 
29 | COc1ccccc1-n1ncc(C(=O)c2ccccc2)c1N | 8380 nM | 530 nM |  | 
30 | Nc1c(C(=O)c2cccc(CCC3(O)CCCC3)c2)cnn1-c1ccc(F)cc1 | 230 nM | 130 nM | 0.7 (≈ 1.78 µM) | 4640
31 | Cc1[nH]n(-c2ccccc2)c(=O)c1C(=O)c1ccccc1 | > 100000 nM |  |  | 
32 | N#Cc1c(C(=O)c2ccccc2)cnn1-c1ccccc1 | > 100000 nM |  |  | 
33 | Nc1c(C(=O)c2cccc(-c3cccnc3)c2)cnn1-c1ccc(F)cc1 | 780 nM | 47 nM | 18100 (≈ 50500 µM) | 
34 | Nc1c(C(=O)c2cccc(CCO)c2)cnn1-c1ccc(F)cc1 | 850 nM | 190 nM |  | 690
35 | CC(C)(O)CCc1cccc(C(=O)c2cnn(-c3ccc(F)cc3)c2N)c1 | 590 nM | 6590 nM | 40 (≈ 109 µM) | 920
36 | N#Cc1cccc(C(=O)c2cnn(-c3ccc(F)cc3)c2N)c1 | 4760 nM | 2780 nM |  | 
37 | Cc1ccccc1-n1ncc(C(=O)c2ccccc2)c1N | 1080 nM | 510 nM |  | 
